Read-outs that look alike come from different tables or passages of the source.
Experiments:
[1] = tested on: KKA^y mice; test: Hypoglycemic and hypolipidemic actions in mice; type: in vivo; details: Mus musculus, po, 96 h, four days; for inhibition in vivo at 0.001 %: 0.001% in powdery diet; for inhibition in vivo at 0.01 %: 0.01% in powdery diet; for inhibition in vivo at 0.0003 %: 0.0003% in powdery diet; for inhibition in vivo at 0.005 %: 0.005% in powdery diet
Method in brief: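 Obese type 2 diabetic KKA^y mice (9-12 weeks, n=5) received compound mixed in powdered diet at 0.0003-0.01% ad libitum for four days. Plasma glucose and triglycerides from orbital venous blood measured enzymatically; values are percent reduction versus untreated group.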

[2] = tested on: KKA^y mice; test: Total cholesterol lowering action and plasma anti-arteriosclerosis index-enhancing action in mice; type: in vivo; details: Mus musculus, po, 96 h, four days, non-treatment group taken as 100%; for change in vivo at 0.01 % / inhibition in vivo at 0.01 %: 0.01% in powdery diet; for change in vivo at 0.005 % / inhibition in vivo at 0.005 %: 0.005% in powdery diet
Excerpt: Total Cholesterol Lowering Action and Plasma Anti-Arteriosclerosis Index-Enhancing Action in Mice
Test compounds were mixed in a powdery diet (CE-2, Japan Clea) at the concentration of 0.01% (compounds of Examples 12, 30, 89), 0.005% (compounds of Examples 38, 40, 44, 181, 184, 262, 283), or 0.001% (compounds of Examples 9, 156, 167, 172, 174, 176, 189), and freely given to KKA^y mice (9 to 12 weeks old, 5 mice per group), a model of obese and type 2 diabetes mellitus, for four days. During this period, water was given freely. Blood was sampled from orbital venous plexus and plasma was separated. Total cholesterol levels were determined by using L type Wako Cholesterol (Wako Pure Chemical Industries, Ltd.). Precipitation reagent for apoB containing lipoprotein was added to a part of the plasma to precipitate non-HDL lipoprotein, and cholesterol (HDL cholesterol) in the resulting supernatant was determined. The plasma anti-arteriosclerosis index [(HDL cholesterol/total cholesterol)×100] was calculated by using these cholesterol levels.
In the Table, “Total cholesterol lowering action (%)” represents the percent reduction (%) of total cholesterol level in the treatment group, when the total cholesterol level in the non-treatment group is taken as 100%. “Plasma anti-arteriosclerosis index-enhancing action (%)” represents the percent increase (%) of plasma anti-arteriosclerosis index in the treatment group, when the plasma anti-arteriosclerosis index in the non-treatment group is taken as 100%.

[3] = percent reduction of plasma glucose compared with the non-treatment group, read-out: Hypoglycemic action (%)
[4] = percent reduction of plasma triglyceride compared with the non-treatment group, read-out: Hypolipidemic action (%)
[5] = percent increase of [(HDL cholesterol/total cholesterol)×100], read-out: Plasma anti-arteriosclerosis index-enchancing action (%)
[6] = percent reduction of plasma total cholesterol

| melting point [°C] | SMILES | inhibition in vivo at 0.01 % [1, 3] [%] | inhibition in vivo at 0.01 % [1, 4] [%] | change in vivo at 0.01 % [2, 5] [%] | inhibition in vivo at 0.01 % [2, 6] [%] | inhibition in vivo at 0.0003 % [1, 3] [%] | inhibition in vivo at 0.0003 % [1, 4] [%] | change in vivo at 0.005 % [2, 5] [%] | inhibition in vivo at 0.005 % [2, 6] [%] | also measured |
| --- | --- | --- | --- | --- | --- | --- | --- | --- | --- | --- |
| 117 to 118 | Cc1oc(-c2cccs2)nc1COc1ccc(Cn2cc(CCC(=O)O)c(-c3ccccc3)c2)cc1 [Example 9, 3-[1-[4-[5-methyl-2-(2-thienyl)-4-oxazolylmethoxy]benzyl]-4-phenyl-3-pyrrolyl]propionic acid] |  |  |  |  |  |  |  |  | inhibition in vivo at 0.001 % [1, 3]: 48%; inhibition in vivo at 0.001 % [1, 4]: 70%; change in vivo at 0.001 % ([2]; 0.001% in powdery diet, percent increase of [(HDL cholesterol/total cholesterol)×100], read-out: Plasma anti-arteriosclerosis index-enchancing action (%)): 12%; inhibition in vivo at 0.001 % ([2]; 0.001% in powdery diet, percent reduction of plasma total cholesterol): 16% |
| 131 to 132 | O=C(O)CCc1cn(Cc2ccc(OCc3cccnc3)cc2)cc1-c1ccccc1 [Example 12, 3-[4-phenyl-1-[4-(3-pyridylmethoxy)benzyl]-3-pyrrolyl]propionic acid] | 46 | 63 | 24 | 15 |  |  |  |  |  |
| 111 to 112 | O=C(O)CCc1cn(Cc2ccc(OCc3csc(-c4ccccc4)n3)cc2)cc1-c1ccccc1 [Example 30, 3-[4-phenyl-1-[4-(2-phenyl-4-thiazolylmethoxy)benzyl]-3-pyrrolyl]propionic acid] | 54 | 77 | 16 | 27 |  |  |  |  |  |
| 114 to 115 | O=C(O)CCc1cn(Cc2ccc(OCc3csc(-c4ccco4)n3)cc2)cc1-c1ccccc1 [Example 38, 3-[1-[4-[2-(2-furyl)-4-thiazolylmethoxy]benzyl]-4-phenyl-3-pyrrolyl]propionic acid] |  |  |  |  | 44 | 69 | 21 | 24 |  |
| 106 to 107 | O=C(O)CCc1cn(Cc2ccc(OCc3csc(-c4cccs4)n3)cc2)cc1-c1ccccc1 [Example 40, 3-[4-phenyl-1-[4-[2-(2-thienyl)-4-thiazolylmethoxy]benzyl]-3-pyrrolyl]propionic acid] |  |  |  |  | 41 | 66 | 22 | 19 |  |
| 139 to 140 | O=C(O)CCc1cn(Cc2ccc(OCc3coc(-c4ccccc4)n3)cc2)cc1-c1ccccc1 [Example 44, 3-[4-phenyl-1-[4-(2-phenyl-4-oxazolylmethoxy]benzyl]-3-pyrrolyl]propionic acid] |  |  |  |  | 47 | 74 | 21 | 23 |  |
| 179 to 180 | Cc1oc(-c2ccccc2)nc1COc1ccc(Cn2cc(CCC(=O)O)c(-c3ccccc3)n2)cc1 [Example 89, 3-[1-[4-(5-methyl-2-phenyl-4-oxazolylmethoxy)benzyl]-3-phenyl-1H-pyrazol-4-yl]propionic acid] | 48 | 70 | 15 | 8 |  |  |  |  |  |
| 126 to 127 | CCOc1nn(Cc2ccc(OCc3nc(-c4ccccc4)oc3C)nc2)cc1CC(=O)O [Example 262, 3-ethoxy-1-[6-(5-methyl-2-phenyl-4-oxazolylmethoxy)-3-pyridylmethyl]-1H-pyrazol-4-ylacetic acid] |  |  |  |  |  |  | 9 | 22 | inhibition in vivo at 0.005 % [1, 3]: 45%; inhibition in vivo at 0.005 % [1, 4]: 61% |
|  | Cc1oc(-c2ccccc2)nc1COc1ccc(Cn2cc(CCC(=O)O)c(-c3ccccc3)n2)cn1 [Example 283, 3-[1-[2-(5-methyl-2-phenyl-4-oxazolylmethoxy)-5-pyridylmethyl]-3-phenyl-1H-pyrazol-4-yl]propionic acid] |  |  |  |  |  |  | 19 | 24 | inhibition in vivo at 0.005 % [1, 3]: 52%; inhibition in vivo at 0.005 % [1, 4]: 78% |

From patent publication US7179823B1, “5-membered n-heterocyclic compounds with hypoglycemic and hypolipidemic activity” (Takeda Pharmaceutical Company Limited, priority 1999, dated 2007)
